Results from patent US20160193291A1, “METHOD OF REGULATING NEURONAL AXON ELONGATION” (RIKEN, priority 2012, published 2016).

Columns and labels:
Assay type in all cases: cell-based, chick (Gallus gallus)
[1] = test system: growth cones of DRG neurons; experiment: Growth cone collapse assay (growth cone surface area)
Protocol: Dissociated DRG neurons from embryonic day 7-9 chicks were cultured for at least 12 h in an F-12 medium (Invitrogen) containing 50 ng/ml NGF. […] Subsequently, the culture medium was changed to BSS buffer. […] In experiments using epoxomicin, the cells were treated with […] epoxomicin for 15 min before the addition of […] Sema3A.
The growth cone area was defined as a hand-like region extending from a distal part of a neurite to a growth cone neck whose width is equal to the width of the neurite. The width of each neurite was calculated by measuring the width of the neurite region at a location that was 30 μm apart from the distal part of each neurite. This calculation was adopted because the mean length of the control growth cone was less than 30 μm.

[2] = test system: Syx1B protein in growth cones; experiment: Immunocytochemistry of Syx1B protein in growth cones; conditions: for protein level of Syx1B normalized to that of SNAP25 in the growth cones: 10 min treatment
Protocol: After Sema3A or vehicle treatment, the cells were fixed with 4% PFA for 1 h at 37° C., followed by permeabilization with 0.3% Triton X-100 in PBS for 2 min at a room temperature.
The cells were then immediately washed three times with a blocking solution (1% BSA and 0.1% Triton X-100 PBS), followed by incubation with the blocking solution for 1 h at a room temperature, and were then incubated in the presence of anti-Syx1B (0.5 μg/ml) and anti-synaptosomal-associated protein 25 (SNAP25) antibody (1:500 dilution, clone SM-81; Sternberger Monpclonals) for 2 h at a room temperature. Immunofluorescence signals were visualized by incubation with Alexa Fluor 488-labeled donkey anti-rabbit antibody (Invitrogen) and Alexa Fluor 594-labeled donkey anti-mouse antibody (Invitrogen). The integrated fluorescence intensity of Syx1B in the growth cones was normalized to that of the SNAP 25 protein.

[3] = test system: growth cones of primary culture DRG neurons; experiment: Endocytosis of Alexa Fluor dextran (macropinocytosis) in growth cones
DRG neurons = experiment: Neurite elongation (neurite length) of transfected DRG neurons; conditions: 15 min pretreatment with 10 μM EIPA
[4] = 15 min pretreatment with 10 μM EIPA
[5] = 15 min pretreatment with 100 μM EIPA

C/C1=C\[C@H](C)C[C@H](C)OC(=O)C[C@H](c2ccc(O)cc2)NC(=O)[C@@H](Cc2c(Br)[nH]c3ccccc23)N(C)C(=O)[C@H](C)NC(=O)[C@@H](C)C1 [jasplakinolide]
growth cone morphology [1]: induces growth cone collapse-like morphological changes
protein level of Syx1B normalized to that of SNAP25 in the growth cones [2]: not decreased

CC[C@H](C)[C@H](NC(=O)[C@H]([C@@H](C)CC)N(C)C(C)=O)C(=O)N[C@H](C(=O)N[C@@H](CC(C)C)C(=O)[C@@]1(C)CO1)[C@@H](C)O [epoxomicin]
effect on Sema3A-induced suppression of Syx1B ([2]; 1 μM epoxomicin): suppressed

O=c1cc(N2CCOCC2)oc2c(-c3ccccc3)cccc12 [LY294002, 2-(4-morpholinyl)-8-phenyl-1 (4H)-benzopyran-4-one]
growth cone area ([1]; 10 min LY294002 treatment): induced reduction in growth cone area
protein level of Syx1B normalized to that of SNAP25 in the growth cones [2]: significantly reduced
macropinocytosis in the growth cones ([3]; 10 min LY294002 treatment): induced macropinocytosis

CCN(c1nc(N)c(C(=O)N=C(N)N)nc1Cl)C(C)C [EIPA, 5-(N-ethyl-N-isopropyl)amiloride]
effect on Syx1B knockdown-mediated reduced neurite elongation (DRG neurons): reversed
effect on Sema3A-induced growth cone collapse [1, 4]: suppressed
effect on Syx1B knockdown-mediated growth cone collapse [1, 4]: reversed
effect on neurotoxin C1-induced reduction in growth cone surface area [1, 5]: blocked
effect on Sema3A-induced uptake of Alexa Flour 594-dextran [3, 4]: suppressed
effect on Syx1B knockdown-mediated accumulation of Alexa Fluor 594-dextran [3, 4]: reversed
effect on neurotoxin C1-induced uptake of Alexa Fluor 594-dextran [3, 5]: blocked
